In patent publication US10966978B2, “Dose and regimen for HDM2-p53 interaction inhibitors” (Novartis AG, priority 2016, dated 2021):
Where two headings read alike, the source gives them in different places.

Tested on: patients with advanced TP53 wild-type (WT) leukemias
[1] = All subjects N = 37, All Grades

Excerpt: Patients with Ph+ ALL who show early markers of relapse in MRD surveillance can be considered for inclusion as long as other therapies such as TKIs are exhausted or cannot be given. • Tumor of the patient is TP53 wt characterized by, at a minimum, no mutations in exons 5, 6, 7 and 8, and the p53 status was obtained from a bone-marrow sample, collected no longer than 3 months before signing the main ICF. Safety and Tolerability Profile of Regimen 1B in Hematological Tumors

## COc1ncc(-c2nc3c(n2C(C)C)[C@H](c2ccc(Cl)cc2)N(c2cc(Cl)cn(C)c2=O)C3=O)c(OC)n1 [HDM201, (S)-5-(5-Chloro-1-methyl-2-oxo-1,2-dihydro-pyridin-3-yl)-6-(4-chloro-phenyl)-2-(2,4-dimethoxy-pyrimidin-5-yl)-1-isopropyl-5,6-dihydro-1H-pyrrolo[3,4-d]imidazol-4-one]
1A 350 mg (4 evaluable patients)
  Cycle 1 DLTs: 0
1A 400 mg (9 evaluable patients)
  Cycle 1 DLTs: 4
1A (d1 Q3W) 250 mg (3 evaluable patients)
  Cycle 1 DLTs: 0
1A all doses, N = 16
  Cycle 1 DLTs, Total: 4:
1B (d1, d8 Q4W) 150 mg (6 evaluable patients)
  Cycle 1 DLTs: 1
1B, N = 6
  Cycle 1 DLT events observed: Acute Kidney Injury G4
2A 30 mg (3 evaluable patients)
  Cycle 1 DLTs: 0
2A (2 weeks on/2 weeks off) 20 mg (3 evaluable patients)
  Cycle 1 DLTs: 0
2A all doses, N = 6
  Cycle 1 DLTs, Total: 0
2C (1 week on/3 weeks off) 45 mg (8 evaluable patients)
  Cycle 1 DLTs: 1
2C, N = 8
  Cycle 1 DLT events observed: Tumor Lysis Syndrome G4
  Cycle 1 DLTs, Total: 1
[1]
  AE: Abdominal Discomfort: 1 (2.7) n (%)
  AE: Abdominal Pain: 2 (5.4) n (%)
  AE: Abdominal Pain Upper: 1 (2.7) n (%)
  AE: Acute Kidney Injury: 3 (8.1) n (%)
  AE: Amylase Increased: 3 (8.1) n (%)
  AE: Anaemia: 16 (43.2) n (%)
  AE: Arthralgia: 1 (2.7) n (%)
  AE: Asthenia: 5 (13.5) n (%)
  AE: Atrial Fibrillation: 2 (5.4) n (%)
  AE: Atypical Pneumonia: 1 (2.7) n (%)
  AE: Balanitis Candida: 1 (2.7) n (%)
  AE: Blood Alkaline Phosphatase Increased: 1 (2.7) n (%)
  AE: Blood Bilirubin Increased: 2 (5.4) n (%)
  AE: Blood Creatinine Increased: 3 (8.1) n (%)
  AE: Blood Phosphorus Increased: 3 (8.1) n (%)
  AE: Blood Uric Acid Increased: 1 (2.7) n (%)
  AE: Bone Marrow Failure: 1 (2.7) n (%)
  AE: C-Reactive Protein Increased: 2 (5.4) n (%)
  AE: Cardiac Failure: 1 (2.7) n (%)
  AE: Cellulitis: 1 (2.7) n (%)
  AE: Chronic Graft Versus Host Disease: 1 (2.7) n (%)
  AE: Conjunctival Haemorrhage: 1 (2.7) n (%)
  AE: Constipation: 2 (5.4) n (%)
  AE: Cough: 1 (2.7) n (%)
  AE: Cystitis Viral: 1 (2.7) n (%)
  AE: Cytomegalovirus Infection: 1 (2.7) n (%)
  AE: Decreased Appetite: 10 (27.0) n (%)
  AE: Diarrhoea: 6 (16.2) n (%)
  AE: Dyspepsia: 2 (5.4) n (%)
  AE: Dyspnoea: 1 (2.7) n (%)
  AE: Epistaxis: 1 (2.7) n (%)
  AE: Fatigue: 6 (16.2) n (%)
  AE: Febrile Neutropenia: 11 (29.7) n (%)
  AE: Gamma-Glutamyltransferase Increased: 2 (5.4) n (%)
  AE: General Physical Health Deterioration: 2 (5.4) n (%)
  AE: Gingival Bleeding: 2 (5.4) n (%)
  AE: Graft Versus Host Disease: 1 (2.7) n (%)
  AE: Haemoglobin Decreased: 1 (2.7) n (%)
  AE: Headache: 2 (5.4) n (%)
  AE: Hyperbilirubinaemia: 3 (8.1) n (%)
  AE: Hyperglycaemia: 1 (2.7) n (%)
  AE: Hyperkalaemia: 1 (2.7) n (%)
  AE: Hyperphosphataemia: 3 (8.1) n (%)
  AE: Hyperuricaemia: 2 (5.4) n (%)
  AE: Hypoalbuminaemia: 1 (2.7) n (%)
  AE: Hypocalcaemia: 2 (5.4) n (%)
  AE: Hypokalaemia: 1 (2.7) n (%)
  AE: Hypomagnesaemia: 1 (2.7) n (%)
  AE: Hyponatraemia: 2 (5.4) n (%)
  AE: Hypophosphataemia: 2 (5.4) n (%)
  AE: Hypotension: 1 (2.7) n (%)
  AE: Infection: 1 (2.7) n (%)
  AE: Infective Glossitis: 1 (2.7) n (%)
  AE: Iron Overload: 1 (2.7) n (%)
  AE: Leukopenia: 2 (5.4) n (%)
  AE: Lip Oedema: 1 (2.7) n (%)
  AE: Lipase Increased: 3 (8.1) n (%)
  AE: Macular Oedema: 1 (2.7) n (%)
  AE: Malaise: 2 (5.4) n (%)
  AE: Mouth Haemorrhage: 2 (5.4) n (%)
  AE: Nausea: 20 (54.1) n (%)
  AE: Neutropenia/Neutrophil Count Decreased: 12 (32.4) n (%)
  AE: Oedema: 1 (2.7) n (%)
  AE: Oedema Peripheral: 1 (2.7) n (%)
  AE: Oral Disorder: 1 (2.7) n (%)
  AE: Pain In Extremity: 1 (2.7) n (%)
  AE: Pancytopenia: 2 (5.4) n (%)
  AE: Pneumonia: 1 (2.7) n (%)
  AE: Pollakiuria: 1 (2.7) n (%)
  AE: Pyrexia: 4 (10.8) n (%)
  AE: Rash: 1 (2.7) n (%)
  AE: Rash Erythematous: 1 (2.7) n (%)
  AE: Rash Papular: 1 (2.7) n (%)
  AE: Rectal Haemorrhage: 1 (2.7) n (%)
  AE: Renal Failure: 1 (2.7) n (%)
  AE: Skin Exfoliation: 1 (2.7) n (%)
  AE: Stomatitis: 2 (5.4) n (%)
  AE: Subarachnoid Haemorrhage: 1 (2.7) n (%)
  AE: Thrombocytopenia/Platelet Count Decreased: 18 (48.6) n (%)
  AE: Total: 33 (89.2) n (%)
  AE: Tumour Lysis Syndrome: 9 (24.3) n (%)
  AE: Vomiting: 7 (18.9) n (%)
  AE: Weight Decreased: 1 (2.7) n (%)
  AE: White Blood Cell Count Decreased: 4 (10.8) n (%)
All subjects N = 37, Grade 3/4
  AE: Abdominal Discomfort: 0 n (%)
  AE: Abdominal Pain: 0 n (%)
  AE: Abdominal Pain Upper: 0 n (%)
  AE: Acute Kidney Injury: 1 (2.7) n (%)
  AE: Amylase Increased: 0 n (%)
  AE: Anaemia: 11 (29.7) n (%)
  AE: Arthralgia: 0 n (%)
  AE: Asthenia: 0 n (%)
  AE: Atrial Fibrillation: 0 n (%)
